The values that follow are results of earlier work, collected in patent US20230203007A1, “PYRIDINYLACETAMIDE DERIVATIVES AS SODIUM CHANNEL ACTIVATORS” (priority 2021, published 2023).

For series [1], the target named is Nav1.5 (Homo sapiens, UniProt Q14524). The conditions noted are these: relative to Nav1.1 activation.
Series [2] deals with Nav1.2 (Homo sapiens, UniProt Q99250). The conditions noted are these: relative to Nav1.1 activation.
In series [3] the target is T1, Nav1.1 (Homo sapiens, UniProt P35498).
T1 construct: host or cells: HEK cells
As to conditions: Nav1.1-expressing HEK cells.

Nav1.2, sequence (Q99250 whole entry): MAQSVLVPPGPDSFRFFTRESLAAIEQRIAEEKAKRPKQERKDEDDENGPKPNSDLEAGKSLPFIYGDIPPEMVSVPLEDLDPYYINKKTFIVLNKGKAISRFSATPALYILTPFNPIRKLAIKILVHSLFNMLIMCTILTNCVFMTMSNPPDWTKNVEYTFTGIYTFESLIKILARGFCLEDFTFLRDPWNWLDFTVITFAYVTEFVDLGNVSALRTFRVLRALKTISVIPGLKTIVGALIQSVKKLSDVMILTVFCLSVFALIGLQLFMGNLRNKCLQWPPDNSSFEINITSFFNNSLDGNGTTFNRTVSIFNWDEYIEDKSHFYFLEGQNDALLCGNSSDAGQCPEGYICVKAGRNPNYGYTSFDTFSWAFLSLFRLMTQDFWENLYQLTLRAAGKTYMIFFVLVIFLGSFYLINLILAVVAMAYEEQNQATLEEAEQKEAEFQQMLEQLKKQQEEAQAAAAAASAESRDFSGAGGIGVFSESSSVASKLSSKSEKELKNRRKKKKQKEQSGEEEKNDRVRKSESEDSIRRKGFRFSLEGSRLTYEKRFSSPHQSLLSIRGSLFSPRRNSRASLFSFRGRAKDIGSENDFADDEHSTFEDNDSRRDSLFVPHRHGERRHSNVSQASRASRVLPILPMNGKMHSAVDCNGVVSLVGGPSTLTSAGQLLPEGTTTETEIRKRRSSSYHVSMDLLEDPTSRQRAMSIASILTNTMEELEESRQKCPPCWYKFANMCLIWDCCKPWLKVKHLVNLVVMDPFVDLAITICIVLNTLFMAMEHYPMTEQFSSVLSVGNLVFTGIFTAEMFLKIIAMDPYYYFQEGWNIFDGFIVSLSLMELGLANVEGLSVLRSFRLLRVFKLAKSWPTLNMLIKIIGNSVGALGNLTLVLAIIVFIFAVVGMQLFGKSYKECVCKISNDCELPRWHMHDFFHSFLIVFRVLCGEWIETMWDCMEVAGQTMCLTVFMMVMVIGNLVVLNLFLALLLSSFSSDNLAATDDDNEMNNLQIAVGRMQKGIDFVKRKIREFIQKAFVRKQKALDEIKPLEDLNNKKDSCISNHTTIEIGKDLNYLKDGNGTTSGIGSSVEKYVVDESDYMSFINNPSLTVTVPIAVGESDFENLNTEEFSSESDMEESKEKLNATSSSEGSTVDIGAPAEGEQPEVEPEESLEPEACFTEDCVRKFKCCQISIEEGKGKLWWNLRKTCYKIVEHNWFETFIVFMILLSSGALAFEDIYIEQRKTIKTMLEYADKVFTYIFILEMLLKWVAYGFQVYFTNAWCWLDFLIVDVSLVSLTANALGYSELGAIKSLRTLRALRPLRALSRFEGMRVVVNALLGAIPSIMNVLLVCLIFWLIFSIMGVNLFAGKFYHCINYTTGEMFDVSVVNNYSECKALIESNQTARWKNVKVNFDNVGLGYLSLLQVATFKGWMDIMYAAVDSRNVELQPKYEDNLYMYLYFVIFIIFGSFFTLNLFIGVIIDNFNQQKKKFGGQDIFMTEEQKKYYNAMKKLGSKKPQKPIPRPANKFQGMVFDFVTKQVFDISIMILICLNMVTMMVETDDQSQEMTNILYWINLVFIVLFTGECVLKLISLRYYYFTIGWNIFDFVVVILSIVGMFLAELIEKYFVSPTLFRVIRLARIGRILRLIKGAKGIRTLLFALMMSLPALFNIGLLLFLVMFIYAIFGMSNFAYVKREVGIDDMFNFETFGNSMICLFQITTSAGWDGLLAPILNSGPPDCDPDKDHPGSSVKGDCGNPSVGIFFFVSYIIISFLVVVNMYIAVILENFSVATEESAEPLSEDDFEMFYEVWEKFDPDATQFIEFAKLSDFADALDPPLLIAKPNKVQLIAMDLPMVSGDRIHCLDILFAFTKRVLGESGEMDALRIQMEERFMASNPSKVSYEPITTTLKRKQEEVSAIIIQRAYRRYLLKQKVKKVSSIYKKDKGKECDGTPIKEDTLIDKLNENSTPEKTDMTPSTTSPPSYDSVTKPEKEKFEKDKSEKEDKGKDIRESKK
Nav1.5, sequence (Q14524 whole entry): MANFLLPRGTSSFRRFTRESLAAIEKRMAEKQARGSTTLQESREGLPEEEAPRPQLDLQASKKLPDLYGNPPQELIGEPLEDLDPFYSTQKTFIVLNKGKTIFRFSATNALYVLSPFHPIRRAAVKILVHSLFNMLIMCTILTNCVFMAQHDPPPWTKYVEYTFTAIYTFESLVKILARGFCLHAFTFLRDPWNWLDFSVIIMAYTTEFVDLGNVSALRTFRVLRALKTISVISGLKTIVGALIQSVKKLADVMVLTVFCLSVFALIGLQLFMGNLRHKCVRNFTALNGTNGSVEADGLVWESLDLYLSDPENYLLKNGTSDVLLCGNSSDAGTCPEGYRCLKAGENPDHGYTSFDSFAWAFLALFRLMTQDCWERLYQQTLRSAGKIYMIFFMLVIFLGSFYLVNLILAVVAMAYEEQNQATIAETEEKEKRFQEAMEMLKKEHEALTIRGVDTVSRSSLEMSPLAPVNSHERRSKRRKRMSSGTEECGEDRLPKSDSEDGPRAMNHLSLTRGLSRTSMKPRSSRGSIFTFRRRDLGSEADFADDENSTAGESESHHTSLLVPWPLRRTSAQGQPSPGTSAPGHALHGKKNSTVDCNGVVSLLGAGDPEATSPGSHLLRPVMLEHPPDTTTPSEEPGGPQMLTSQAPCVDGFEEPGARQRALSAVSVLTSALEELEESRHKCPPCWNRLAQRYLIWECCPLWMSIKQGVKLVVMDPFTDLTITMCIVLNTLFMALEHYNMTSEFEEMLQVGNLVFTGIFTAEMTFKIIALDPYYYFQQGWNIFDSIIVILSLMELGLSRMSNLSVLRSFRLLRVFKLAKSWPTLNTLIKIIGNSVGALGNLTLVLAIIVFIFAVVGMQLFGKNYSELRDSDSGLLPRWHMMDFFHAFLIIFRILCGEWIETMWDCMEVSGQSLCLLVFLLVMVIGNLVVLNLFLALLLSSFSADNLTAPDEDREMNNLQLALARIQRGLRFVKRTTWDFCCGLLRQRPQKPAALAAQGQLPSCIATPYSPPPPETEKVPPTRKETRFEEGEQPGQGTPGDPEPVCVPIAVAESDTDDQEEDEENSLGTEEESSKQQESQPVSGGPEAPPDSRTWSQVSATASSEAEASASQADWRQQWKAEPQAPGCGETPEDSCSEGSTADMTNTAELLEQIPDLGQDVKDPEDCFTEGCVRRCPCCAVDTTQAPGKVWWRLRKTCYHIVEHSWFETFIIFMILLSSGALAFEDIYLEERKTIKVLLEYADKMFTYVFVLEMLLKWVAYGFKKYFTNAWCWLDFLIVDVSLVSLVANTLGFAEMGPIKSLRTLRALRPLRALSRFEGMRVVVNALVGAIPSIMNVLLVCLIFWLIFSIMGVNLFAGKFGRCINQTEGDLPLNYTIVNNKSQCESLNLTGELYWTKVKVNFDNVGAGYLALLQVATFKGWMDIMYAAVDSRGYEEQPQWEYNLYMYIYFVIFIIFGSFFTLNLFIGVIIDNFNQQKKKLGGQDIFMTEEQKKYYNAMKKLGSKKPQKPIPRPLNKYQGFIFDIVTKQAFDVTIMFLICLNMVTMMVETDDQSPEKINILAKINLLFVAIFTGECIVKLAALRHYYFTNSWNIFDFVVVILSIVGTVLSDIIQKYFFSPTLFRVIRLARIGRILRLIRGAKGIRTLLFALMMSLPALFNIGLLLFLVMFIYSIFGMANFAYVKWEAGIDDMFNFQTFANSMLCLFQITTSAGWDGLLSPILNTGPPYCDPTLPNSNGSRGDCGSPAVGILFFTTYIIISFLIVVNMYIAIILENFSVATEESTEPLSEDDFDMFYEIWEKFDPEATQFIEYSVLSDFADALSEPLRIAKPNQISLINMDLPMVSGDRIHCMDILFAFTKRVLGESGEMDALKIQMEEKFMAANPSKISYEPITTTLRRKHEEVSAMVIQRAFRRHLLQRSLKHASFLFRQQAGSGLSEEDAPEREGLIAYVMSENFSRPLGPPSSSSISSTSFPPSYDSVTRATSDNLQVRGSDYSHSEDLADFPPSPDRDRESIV

With `CCCCNS(=O)(=O)c1ccc(OC)c(-c2nnc3c4ccccc4c(C)nn23)c1` [Lu AE98134], in series [1], the “selectivity against Nav1.5” value is recorded as “low selectivity”. Also, the “selectivity against Nav1.2” value in series [2] was “moderate selectivity”. For the same molecule, the “concentration from which the total area under the curve for the duration of the depolarizing pulse is increased” value in series [3] is reported as no less than 1 µM.
